According to patent US20250051321A1, “TRICYCLIC DERIVATIVE AND PREPARATION METHOD THEREFOR AND APPLICATION THEREOF” (SHANGHAI JEMINCARE PHARMACEUTICAL CO., LTD., priority 2021, published 2025):
pIC50: −log10 of the molar value. Where two headings read alike, the source gives them in different places.

Key:
[1] = target: ATX (Homo sapiens (Human), UniProt Q13822); assay: ATX enzyme inhibition assay (Amplex UltraRed/choline oxidase/HRP, 16:0 Lyso PC substrate); format: biochemical
Procedure: All compounds were prepared as a 10 mM DMSO stock solution.
Solutions at pH 8.5 and pH 7.5 were prepared respectively with the following formulations:
All compounds, including the positive control compound, were diluted 5-fold from 10 mM to 2 mM with DMSO in the first step. The mixture was then diluted to 100 μM with 1× assay buffer.
3. Separate Detection of Compounds with 1× Assay Buffer at Two pH Values:
a) 5 μL of 10× compound diluent was added to a 384-well plate (Greiner 781209) using a motorized pipette (see the “experimental preparation” step). 5 μL of 1× assay buffer containing 5% DMSO was added to both negative and positive control wells. The plate was centrifuged at 300 rpm for 1 minute at room temperature.
b) 2× ATX ([…]) was prepared with 1× assay buffer, and 25 μL of 2× ATX was added to the plate using a motorized pipette. 25 μL of 1× assay buffer was added to the negative control wells and 25 μL of 2× ATX was added to the positive control wells. The plate was centrifuged at 300 rpm for 1 minute at room temperature.
The plate was incubated at room temperature for 10 minutes.
c) 2.5× working solution containing Amplex UltraRed reagent (125 μM), HRP (2.5 U/mL), choline oxidase (1.25 U/mL), and 16:0 Lyso PC (75 μM) was prepared with 1× assay buffer. 20 μL of 2.5× working solution was added to all reaction wells using a motorized pipette. The plate was centrifuged at 300 rpm for 1 minute at room temperature.
d) The plate was detected by SpectraMax with the following procedures: fluorescence mode; excitation at 550 nm; emission at 590 nm; kinetics; read once every 2 minutes; read continuously for 60 minutes.
The calculation formula of % inhibition (i.e., % inhibition rate) was as follows: […]
V0: X-axis is taken as 0 to 30 minutes, Y-axis is taken as fluorescence readings, and the slope corresponding to the straight line fitted by the software GraphPad Prism 8 is the initial response rate.
V0max: Average V0 of the positive control wells in the plate.
V0min: Average V0 of the negative control wells in the plate.
The IC50 of the compounds was calculated from a nonlinear regression line (dose-initial response rate) fitted by % inhibition and log value of compound concentration using the software GrahPad Prism 8.

[2] = tested on: plasma LPA 18:1 and LPA 18:2; assay: Human plasma ex vivo assay (LPA 18:1 / 18:2 by LC-MS/MS); format: biochemical; conditions: 37° C., 2 hours
Procedure: The collected plasma was centrifuged at 4000 rpm for 15 minutes at 4° C. The supernatant was aliquoted into a 96-well plate (25 μL per well), sealed, and frozen at −80° C. for further use.
LPA 17:0 powder was dissolved in a mixed solution of water: isopropanol: formic acid (1:1:1) to a final concentration of […]. The mixture was aliquoted and frozen at −20° C.
1 volume of formic acid was added to 1000× methanol, mixed well, and stored at 4° C. a) The 96-well plate containing frozen plasma was removed from the −80° C. freezer and thawed on ice at room temperature. b) 6 μL of 50× LPA 17:0 (internal standard) and 264 μL of 0.1% FA were added to a clean well of the 96-well plate; the final concentration of LPA 17:0 (internal standard) was 50 nM. c) 6× compound was 1:3 serially diluted to a total of 8 concentrations, and 5 μL of the compound per well was added to the 96-well plate containing plasma. The maximum final concentration of the compound was 10 μM, and the final concentration of DMSO was 0.1%. The plate was centrifuged at 300 rpm for 30 seconds. The DMSO control sample reacted for 0 hours was used as the minimum value (Min), and the DMSO control sample reacted for 2 hours was used as the maximum value (Max). […]
d) The DMSO sample reacted for 0 hours was rapidly transferred to 0.1% FA solution containing the internal standard in step b) to terminate the reaction and precipitate plasma proteins. e) The 96-well plate containing plasma and compounds was rapidly incubated in a 37° C. incubator for 2 hours. After the incubation, 6 μL of 10× LPA 17:0 and 264 μL of 0.1% FA were added to each well to terminate the reaction and precipitate plasma proteins. […]
f) All the samples were mixed well with a pipette, and centrifuged at 4000 rpm for 10 minutes at 4° C. 150 μL of the supernatant was added to a 96-well U-bottom plate (Thermo 267245), sealed with silica gel, and then loaded. The contents of LPA 18:1 and LPA 18:2 in the samples were detected by LC-MS/MS system.
LPA 18:1(or 18:2) relative content=LPA 18:1(or 18:2) peak area/LPA 17:0 peak area Percentage reduction (%) in plasma LPA18:1(or 18:2)=(Max−X)/(Max−Min)*100 Max: LPA 18:1 (or 18:2) relative content of the DMSO sample reacted for 2 hours Min: LPA 18:1 (or 18:2) relative content of the DMSO sample reacted for 0 hours X: LPA 18:1 (or 18:2) relative content of the sample after compound treatment for 2 hours The IC50 of the compounds was calculated by fitting a nonlinear regression through percentage reduction in plasma LPA 18:1 (or 18:2) and log value of compound concentration using the software GraphPad Prism 8.
Y=Bottom+(Top−Bottom)/(1+10^((Log IC50−X)*Hill Slope))

[3] = assay buffer pH 7.5, read-out: IC50 (nM) pH 7.5
[4] = assay buffer pH 8.5, read-out: IC50 (nM) pH 8.5
[5] = LPA 18:1, read-out: Human plasma ex vivo assay IC50 (18:1 LPA)
[6] = LPA 18:2, read-out: Human plasma ex vivo assay IC50 (18:2 LPA)

IC50 [1, 3] [nM] | IC50 [1, 4] [nM] | pIC50 [2, 5] | pIC50 [2, 6] | SMILES
541 | 75 | 6.60 | 6.57 | CN(c1nc(-c2ccc(F)cc2)c(C#N)s1)c1c2c(nc3c(F)cc(N4CC5(CN(CC(=O)N6CC(CO)C6)C5)C4)cc13)CCC2 [Example A25]
41.6 | 23.8 | 6.40 | 6.44 | CN(c1nc(-c2ccc(F)cc2)c(C#N)s1)c1c2c(nc3c(F)cc(N4CC5(CN(C(=O)[C@@H]6CCOC6)C5)C4)cc13)CCC2 [Example C2]
 | 48.7 | 6.78 | 6.76 | CN(c1nc(-c2ccc(F)cc2)c(C#N)s1)c1c2c(nc3c(F)cc(N4CC5(CN(CC(=O)N6CC(O)C6)C5)C4)cc13)CC2 [Example A17]
 | 26.7 | 6.68 | 6.69 | CN(c1nc(-c2ccc(F)cc2)c(C#N)s1)c1c2c(nc3c(F)cc(N4CC5(CN(C(=O)[C@@]6(O)CCOC6)C5)C4)cc13)[C@@H](O)CC2 (single isomer, unassigned) [Example E19-2a]
 | 19.6 | 6.79 | 6.82 | C[C@@H]1CN(c2cc(F)c3nc4c(c(N(C)c5nc(-c6ccc(F)cc6)c(C#N)s5)c3c2)CCC4O)CCN1CC(=O)N1CC(O)C1 (stereo partly drawn) [Example E9]
 | 17.3 | 6.55 | 6.19 | CN(c1nc(-c2ccc(F)cc2)c(C#N)s1)c1c2c(nc3c(F)cc(N4CC5(CN(C(=O)C6CCOCC6)C5)C4)cc13)C(O)CC2 (stereo not drawn) [Example E14]
78.5 | 23 | 6.67 | 6.63 | CN(c1nc(-c2ccc(F)cc2)c(C#N)s1)c1c2c(nc3c(F)cc(N4CC5(CCN(C(=O)[C@@H]6CCOC6)CC5)C4)cc13)CCC2 [Example C9]
 | 22.9 | 6.68 | 6.44 | CN(c1nc(-c2ccc(F)cc2)c(C#N)s1)c1c2c(nc3c(F)cc(N4CC5(CN(C(=O)[C@]6(O)CCOC6)C5)C4)cc13)[C@H](O)CC2 (single isomer, unassigned) [Example E19-1a]
219 | 22.3 | 7.19 | 7.04 | CN(c1nc(-c2ccc(F)cc2)c(C#N)s1)c1c2c(nc3ccc(N4CCN(CC(=O)N5CC(O)C5)CC4)nc13)CCO2 [Example A12]
 | 112 | 6.75 | 6.77 | CN(c1nc(-c2ccc(F)cc2)c(C#N)s1)c1c2c(nc3ccc(N4CCN(S(C)(=O)=O)C[C@@H]4CO)cc13)CCC2 [Example B1]
38.6 | 27.4 | 6.94 | 7.05 | CN(c1nc(-c2ccc(F)cc2)c(C#N)s1)c1c2c(nc3ncc(N4CC5(CN(C(=O)[C@@H]6CCOC6)C5)C4)cc13)CCC2 [Example C4]
413 | 52.7 | 6.93 | 6.88 | CN(c1nc(-c2ccc(F)cc2)c(C#N)s1)c1c2c(nc3c(F)cc(N4CCN(CC(=O)N5CC(O)C5)CC4)cc13)COC2 [Example A19]
318 | 44.7 | 6.74 | 6.73 | CN(c1nc(-c2ccc(F)cc2)c(C#N)s1)c1c2c(nc3c(F)cc(N4CCC5(CC4)CN(CC(=O)N4CC(O)C4)C5)cc13)CCC2 [Example A6]
883 | 64 | 6.61 | 6.57 | CN(c1nc(-c2ccc(F)cc2)c(C#N)s1)c1c2c(nc3cc(F)c(N4CCN(CC(=O)N5CC(O)C5)CC4)cc13)CCC2 [Example A8]
32 | 22.7 | 6.85 | 6.87 | CN(c1nc(-c2ccc(F)cc2)c(C#N)s1)c1c2c(nc3ncc(N4CC5(CN(C(=O)[C@H]6CCOC6)C5)C4)cc13)CCC2 [Example C3]
82.2 | 52.6 | 6.53 | 6.46 | CN(c1nc(-c2ccc(F)cc2)c(C#N)s1)c1c2c(nc3c(F)cc(N4CC5(CN(C(=O)[C@H]6CCOC6)C5)C4)cc13)CCO2 [Example C12]
 | 19.8 | 6.41 | 6.41 | CN(c1nc(-c2ccc(F)cc2)c(C#N)s1)c1c2c(nc3c(F)cc(N4CC5(CN(C(=O)[C@@H]6CCOC6)C5)C4)cc13)[C@@H](O)CC2 (single isomer, unassigned) [Example E13-a]
 | 21.4 | 6.60 | 6.59 | CN1CC[C@H](C(=O)N2CC3(C2)CN(c2cc(F)c4nc5c(c(N(C)c6nc(-c7ccc(F)cc7)c(C#N)s6)c4c2)CCC5O)C3)C1 (stereo partly drawn) [Example E18]
1230 | 196 | 6.63 | 6.58 | CN(c1nc(-c2ccc(F)cc2)c(C#N)s1)c1c2c(nc3c(F)cc(N4CCN(C(=O)[C@@H]5CCOC5)CC4)cc13)CCC2 [Example C6]
 | 14 | 6.41 | 6.37 | C[C@@H]1CN(CC(=O)N2CC(O)C2)CCN1c1cc(F)c2nc3c(c(N(C)c4nc(-c5ccc(F)cc5)c(C#N)s4)c2c1)CC[C@H]3O (single isomer, unassigned) [Example E6-b]
 | 18.4 | 6.68 | 6.70 | C[C@@H]1CN(c2cc(F)c3nc4c(c(N(C)c5nc(-c6ccc(F)cc6)c(C#N)s5)c3c2)CC[C@H]4O)CCN1CC(=O)N1CC(O)C1 (single isomer, unassigned) [Example E9-b]
 | 27.2 | 6.66 | 6.32 | CN(c1nc(-c2ccc(F)cc2)c(C#N)s1)c1c2c(nc3c(F)cc(N4CC5(CN(C(=O)[C@]6(O)CCOC6)C5)C4)cc13)[C@@H](O)CC2 (single isomer, unassigned) [Example E19-1b]
611 | 66.5 | 6.66 | 6.60 | CN(c1nc(-c2ccc(F)cc2)c(C#N)s1)c1c2c(nc3c(F)cc(N4CCN(S(C)(=O)=O)[C@@H](CO)C4)cc13)CCC2 [Example B4]
624 | 96.7 | 7.07 | 7.13 | CN(c1nc(-c2ccc(F)cc2)c(C#N)s1)c1c2c(nc3ccc(N4CCN(CC(=O)N5CC(O)C5)CC4)cc13)COC2 [Example A2]
141 | 58.8 | 6.75 | 6.70 | CN(c1nc(-c2ccc(F)cc2)c(C#N)s1)c1c2c(nc3ccc(N4CCN(S(C)(=O)=O)C[C@H]4CO)cc13)CCC2 [Example B2]
334 | 83.1 | 6.51 | 6.42 | CN(c1nc(-c2ccc(F)cc2)c(C#N)s1)c1c2c(nc3c(F)cc(N4CCC5(CCN(C(=O)[C@@H]6CCOC6)C5)C4)cc13)CCC2 (stereo partly drawn) [Example C14]
